Experimental data published in patent US8680159B2, “Bradykinin 1 receptor modulating compounds” (Gruenenthal GmbH, priority 2010, dated 2014).

Legend:
[1] = molecular target: T1, B1R receptor of the rat (CHO K1 cells stably transfected with the B1R gene of the rat) (Rattus norvegicus, UniProt P97583); assay: Functional study on the bradykinin receptor 1 (B1R), Ca2+ fluorescence (Fluo-4) FLIPR/Novostar assay, rB1R cells; format: cell-based; settings: CHO-K1, 10 μM, read-out: % inhibition (rat B1R) at 10 μM
T1 construct: expressed in transfected cells; host or cells: CHO K1 cells (Chinese hamster ovary), stably transfected
T1 sequence (P97583 1-337): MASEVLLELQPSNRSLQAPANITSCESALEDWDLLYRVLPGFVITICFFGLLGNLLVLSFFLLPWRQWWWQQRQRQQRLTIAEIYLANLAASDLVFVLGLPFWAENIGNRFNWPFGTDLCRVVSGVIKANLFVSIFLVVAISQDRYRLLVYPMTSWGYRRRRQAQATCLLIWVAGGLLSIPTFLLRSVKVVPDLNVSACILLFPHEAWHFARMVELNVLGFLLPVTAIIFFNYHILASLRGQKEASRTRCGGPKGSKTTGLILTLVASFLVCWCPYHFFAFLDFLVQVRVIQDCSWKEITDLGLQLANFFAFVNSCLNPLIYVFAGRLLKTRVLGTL
Method in brief: (§1)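 Stably transfected CHO K1 cells carrying human or rat B1R were Fluo-4 loaded and Ca2+ fluorescence read by FLIPR or Novostar. Compounds were added first at 10 μM for % activation, then the EC80 agonist was applied after 6-20 min (human: Lys-Des-Arg9-bradykinin; rat: Des-Arg9-bradykinin). % inhibition is relative to maximum achievable inhibition, and IC50 comes from concentration series.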

[2] = molecular target: T2, human B1R receptor (CHO K1 cells stably transfected with the human B1R gene) (Homo sapiens, UniProt P46663); assay: Functional study on the bradykinin receptor 1 (B1R), Ca2+ fluorescence (Fluo-4) FLIPR/Novostar assay, hB1R cells; format: cell-based; settings: CHO-K1, read-out: % inhibition (human B1R) at 10 μM
T2 construct: expressed in transfected cells; host or cells: CHO K1 cells (Chinese hamster ovary), stably transfected
T2 sequence (P46663 1-353): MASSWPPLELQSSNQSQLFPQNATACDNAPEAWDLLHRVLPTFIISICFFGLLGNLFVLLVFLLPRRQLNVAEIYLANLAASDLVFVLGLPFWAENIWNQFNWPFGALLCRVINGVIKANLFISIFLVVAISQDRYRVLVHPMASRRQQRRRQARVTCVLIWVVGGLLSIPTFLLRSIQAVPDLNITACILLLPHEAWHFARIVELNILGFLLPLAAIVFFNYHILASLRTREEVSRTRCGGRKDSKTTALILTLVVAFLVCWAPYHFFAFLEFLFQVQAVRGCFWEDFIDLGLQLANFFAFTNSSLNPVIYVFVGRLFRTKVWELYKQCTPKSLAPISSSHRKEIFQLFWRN
Method in brief: as §1

| inhibition at 10 µM [1] [%] | inhibition at 10 µM [2] [%] | SMILES |
| --- | --- | --- |
| 105 | 100 | CN(C(=O)c1ccc2c(c1)[C@H](NC(=O)c1ccc(F)cc1)CC2)C1CCN(c2ccncc2)CC1 [Example H-75, (3R)-3-[(4-Fluoro-benzoyl)amino]-N-methyl-N-(1-pyridin-4-yl-piperidin-4-yl)-2,3-dihydro-1H-indene-5-carboxylic acid amide] |
| 107 | 95 | CN(C(=O)c1ccc2c(c1)[C@H](NC(=O)C1CCOCC1)CC2)C1CCN(c2ccncc2)CC1 [Example H-76, N-[(1R)-6-[Methyl-(1-pyridin-4-yl-piperidin-4-yl)-carbamoyl]-2,3-dihydro-1H-yl)-1-2,3-tetrahydro-pyran-4-carboxylic acid amide] |
| 104 | 100 | CCN(C(=O)c1ccc2c(c1)[C@H](NC(=O)c1ccccc1Cl)CC2)C1CCN(c2ccncc2)CC1 [Example H-77, (3R)-3-[(2-Chloro-benzoyl)amino]-N-ethyl-N-(1-pyridin-4-yl-piperidin-4-yl)-2,3-dihydro-1H-indene-5-carboxylic acid amide] |
| 85 | 31 | CN(C(=O)c1ccc2c(c1)[C@H](NC(=O)c1ccccc1Cl)CC2)C1CCN(c2ccc(F)cc2)CC1 [Example H-78, (3R)-3-[(2-Chloro-benzoyl)amino]-N-[1-(4-fluorophenyl)-pipendin-4-yl]-N-methyl-2,3-dihydro-1H-indene-5-carboxylic acid amide] |
| 110 | 100 | CCN(C(=O)c1ccc2c(c1)[C@H](NC(=O)c1ccccc1Cl)CC2)C1CCN(c2ccnc(C)c2)CC1 [Example H-79, (3R)-3-[(2-Chloro-benzoyl)amino]-N-ethyl-N-[1-(2-methyl-pyridin-4-yl)-piperidin-4-yl]-2,3-dihydro-1H-indene-5-carboxylic acid amide] |
| 110 | 100 | CN(C(=O)c1cc(F)c2c(c1)[C@H](NC(=O)c1ccccc1Cl)CCO2)C1CCN(c2ccncc2)CC1 [Example H-80, (4R)-4-[(2-Chloro-benzoyl)amino]-8-fluoro-N-methyl-N-(1-pyridin-4-yl-piperidin-4-yl)-3,4-dihydro-2H-chromene-6-carboxylic acid amide] |
| 109 | 95 | Cc1cc(N2CCC(N(C)C(=O)c3cc(F)c4c(c3)[C@H](NC(=O)c3ccccc3Cl)CCO4)CC2)nc(C)n1 [Example H-81, (4R)-4-[(2-Chloro-benzoyl)amino]-N-[1-(2,6-dimethyl-pyrimidin-4-yl)-piperidin-4-yl]-8-fluoro-N-methyl-3,4-dihydro-2H-chromene-6-carboxylic acid amide] |
| 112 | 100 | CN(C(=O)c1ccc2c(c1)[C@H](NC(=O)C1CCc3ccccc31)CC2)C1CCN(c2ccncc2)CC1 (stereo partly drawn) [Example H-82, (3R)-3-(2,3-Dihydro-1H-inden-1-carbonylamino)-N-methyl-N-(1-pyridin-4-yl-piperidin-4-yl)-2,3-dihydro-1H-indene-5-carboxylic acid amide] |
| 111 | 100 | CN(C(=O)c1ccc2c(c1)[C@H](NC(=O)c1cncc3ccccc13)CC2)C1CCN(c2ccncc2)CC1 [Example H-83, N-[(1R)-6-[Methyl-(1-pyridin-4-yl-piperidin-4-yl)-carbamoyl]-2,3-dihydro-1H-inden-1-yl]-isoquinoline-4-carboxylic acid amide] |
| 103 | 100 | CN(C(=O)c1ccc2c(c1)[C@H](NC(=O)C1CCOc3ccccc31)CC2)C1CCN(c2ccncc2)CC1 (stereo partly drawn) [Example H-84, N-[(1R)-6-[Methyl-(1-pyridin-4-yl-piperidin-4-yl)-carbamoyl]-2,3-dihydro-1H-inden-1-yl]-3,4-dihydro-2H-chromene-4-carboxylic acid amide] |
| 103 | 100 | Cc1cc(N2CCC(N(C)C(=O)c3ccc4c(c3)[C@H](NC(=O)CC(C)C)CC4)CC2)ccn1 [Example H-85, (3R)-N-Methyl-3-(3-methyl-butanoylamino)-N-[1-(2-methyl-pyridin-4-yl)-piperidin-4-yl]-2,3-dihydro-1H-indene-5-carboxylic acid amide] |
| 98 | 100 | Cc1cc(N2CCC(N(C)C(=O)c3ccc4c(c3)[C@H](NC(=O)CC(C)C)CC4)CC2)nc(C)n1 [Example H-86, (3R)-N-[1-(2,6-Dimethyl-pyrimidin-4-yl)-piperidin-4-yl]-N-methyl-3-(3-methyl-butanoylamino)-2,3-dihydro-1H-indene-5-carboxylic acid amide] |
| 104 | 39 | CN(C(=O)c1cc(F)c2c(c1)[C@H](N1Cc3cccc(Cl)c3C1=O)CCO2)C1CCN(c2ccncc2)CC1 [Example H-87, (4R)-4-(4-Chloro-3-oxo-1,2-dihydro-isoindol-2-yl)-8-fluoro-N-methyl-N-(1-pyridin-4-yl-piperidin-4-yl)-3,4-dihydro-2H-chromene-6-carboxylic acid amide] |
| 104 | 96 | Cc1cc(N2CCC(N(C)C(=O)c3ccc4c(c3)[C@H](NC(=O)C3CCOCC3)CC4)CC2)ccn1 [Example H-88, N-[(1R)-6-[Methyl-[1-(2-methyl-pyridin-4-yl)-piperidin-4-yl]-carbamoyl]-2,3-dihydro-1H-inden-1-yl]-tetrahydro-pyran-4-carboxylic acid amide] |
| 89 | 74 | Cc1cc(N2CCC(N(C)C(=O)c3ccc4c(c3)[C@H](NC(=O)C3CCOCC3)CC4)CC2)nc(C)n1 [Example H-89, N-[(1R)-6-[[1-(2,6-Dimethyl-pyrimidin-4-yl)-piperidin-4-yl]-methyl-carbamoyl]-2,3-dihydro-1H-inden-1-yl]-tetrahydro-pyran-4-carboxylic acid amide] |
| 105 | 62 | CN(C(=O)c1ccc2c(c1)[C@H](NC(=O)c1ccccc1Cl)CC2)C1CCN(C(=O)CCN2CCCCC2)CC1 [Example H-90, (3R)-3-[(2-Chloro-benzoyl)amino]-N-methyl-N-[1-(3-piperidin-1-yl-propanoyl)-piperidin-4-yl]-2,3-dihydro-1H-indene-5-carboxylic acid amide] |
| 108 | 100 | Cc1cc(N2CCC(N(C)C(=O)c3ccc4c(c3)[C@H](NC(=O)c3cccnc3C(F)(F)F)CC4)CC2)nc(C)n1 [Example H-91, N-[(1R)-6-[[1-(2,6-Dimethyl-pyrimidin-4-yl)-piperidin-4-yl]-methyl-carbamoyl]-2,3-dihydro-1H-inden-1-yl]-2-(trifluoromethyl)-pyridine-3-carboxylic acid amide] |
| 106 | 100 | Cc1cc(N2CCC(N(C)C(=O)c3ccc4c(c3)[C@H](NC(=O)c3cccnc3C(F)(F)F)CC4)CC2)ccn1 [Example H-92, N-[(1R)-6-[Methyl-[1-(2-methyl-pyridin-4-yl)-piperidin-4-yl]-carbamoyl]-2,3-dihydro-1H-inden-1-yl]-2-(trifluoromethyl)-pyridine-3-carboxylic acid amide] |
| 103 | 100 | Cc1cc(N2CCC(N(C)C(=O)c3ccc4c(c3)[C@H](NC(=O)CCC3CCCC3)CC4)CC2)ccn1 [Example H-93, (3R)-3-(3-Cyclopentyl-propanoylamino)-N-methyl-N-[1-(2-methyl-pyridin-4-yl)-piperidin-4-yl]-2,3-dihydro-1H-indene-5-carboxylic acid amide] |
| 99 | 100 | Cc1cc(N2CCC(N(C)C(=O)c3ccc4c(c3)[C@H](NC(=O)CCC3CCCC3)CC4)CC2)nc(C)n1 [Example H-94, (3R)-3-(3-Cyclopentyl-propanoylamino)-N-[1-(2,6-dimethyl-pyrimidin-4-yl)-piperidin-4-yl]-N-methyl-2,3-dihydro-1H-indene-5-carboxylic acid amide] |
| 104 | 100 | Cc1cc(N2CCC(N(C)C(=O)c3ccc4c(c3)[C@H](NC(=O)c3cc(C)on3)CC4)CC2)ccn1 [Example H-95, 5-Methyl-N-[(1R)-6-[methyl-[1-(2 methyl-pyridin-4-yl)-piperidin-4-yl]-carbamoyl]-2,3-dihydro-1H-inden-1-yl]-isoxazole-3-carboxylic acid amide] |
